Assay results published in patent US9340577B2, “HLA binding motifs and peptides and their uses” (priority 1992, dated 2016).
Like-named read-outs stand apart in the source and are kept apart here. No end group written: not given here.

Tests used:
Assay in all cases: biochemical
DRB1*0802 = DRB1*0802 (Homo sapiens, UniProt P01903+P01911, A100R/A103L/A169T/F76Y/H45Y/I96F/K41T/L162R/M171V/P40S/Q125H/Q178H/Q39Y/Q99D/R218S/R42G/S66Y/V115G/W38E); assay type: binding
DRB1*1302 = DRB1*1302 (Homo sapiens, UniProt P01903+P01911, A100E/A169T/K41T/L162R/M171V/P40S/Q125H/Q178H/Q39Y/Q99D/R42S/S66N/T262R/V115G/W38E/Y61H); assay type: binding
DRB1*1302, sequence (P01903 26-254 limits assumed, other chains not shown): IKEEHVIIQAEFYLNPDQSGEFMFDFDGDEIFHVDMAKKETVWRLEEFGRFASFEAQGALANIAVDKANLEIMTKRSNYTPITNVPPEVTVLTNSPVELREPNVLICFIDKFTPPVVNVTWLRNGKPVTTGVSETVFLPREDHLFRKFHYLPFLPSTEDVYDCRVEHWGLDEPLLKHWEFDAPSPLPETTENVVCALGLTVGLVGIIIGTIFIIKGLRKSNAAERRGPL

DR7 (DRB1*0701) = DR7 (DRB1*0701) (Homo sapiens, UniProt P01903+P01911, A100R/A102G/A103Q/D57E/D86V/E43K/F76Y/K127E/L162R/M171V/P40G/Q125H/Q99D/R33Q/R42Y/R54Q/S133A/S66F/T210M/V115G/Y107V/Y59L/Y89S); assay type: binding
DRB1*1101 = DRB1*1101 (Homo sapiens, UniProt P01903+P01911, A100R/A169T/A87E/I96F/K41T/L162R/M171V/P40S/Q125H/Q178H/Q39Y/Q99D/R42S/S66Y/T262R/V115G/W38E)
DRB1*1101, sequence (P01903 26-254 limits assumed, other chains not shown): as above

DRB1*1501 = DRB1*1501 (Homo sapiens, UniProt P01903+P01911); assay type: binding
DR1 (DRB1*0101) = DR1 (DRB1*0101) (Homo sapiens, UniProt P01903+P01911, A100R/D57E/F55L/F60I/F76Y/I96L/L162R/M171V/P40L/Q125E/R42F/V115G/Y59C); assay type: binding
DRB4*0101 = DRB4*0101 (Homo sapiens, UniProt P01903+P13762, G164S); assay type: binding
DR4w4 (DRB1*0401) = DR4w4 (DRB1*0401) (Homo sapiens, UniProt P01903+P01911, A100K/A169T/F76Y/I96L/K127E/L162R/M171V/N62H/P40V/Q125Y/R42H/S133A/S149N/S66Y/V115G/V209L/W38E); assay type: binding
DRB5*0101 = DRB5*0101 (Homo sapiens, UniProt P01903+Q30154)
DRB1*0901 = DRB1*0901 (Homo sapiens, UniProt P01903+P01911, A100R/A103E/D57H/D86V/F55Y/F60I/F76Y/I96F/K127E/L162R/M171V/P40D/Q125H/Q99R/R33Q/R42F/S133A/S66N/T210M/V115G/W38K/Y107V/Y59G/Y89S); assay type: binding
DRB1*0405 = DRB1*0405 (Homo sapiens, UniProt P01903+P01911, A100R/A169T/D86S/F76Y/I96L/K127E/L162R/M171V/N62H/P40V/Q125Y/R42H/S133A/S149N/S66Y/V115G/V209L/W38E); assay type: binding

| Molecule | IC50 (DRB1*0802) | IC50 (DRB1*1302) | IC50 (DR7 (DRB1*0701)) | IC50 (DRB1*1101; Binding affinity DRB1 *1101) | IC50 (DRB1*1501) | IC50 (DR1 (DRB1*0101)) | IC50 (DRB4*0101) | IC50 (DR4w4 (DRB1*0401)) | IC50 (DRB5*0101; Binding affinity DRB5 *0101) | IC50 (DRB1*0901) | IC50 (DRB1*0405) | IC50 (DRB1*1101) | IC50 (DRB5*0101) |
| --- | --- | --- | --- | --- | --- | --- | --- | --- | --- | --- | --- | --- | --- |
| RQHLANHPAATHTKA [Peptide 89.0155] | > 20 µM | 0.878 µM | > 20 µM | 16 µM | 8.66 µM | > 20 µM | > 20 µM | > 20 µM | > 20 µM | > 20 µM | > 20 µM |  |  |
| DSEIAYKYAQLADTN [Peptide 89.0012] | 1.12 µM | > 20 µM | > 20 µM | 3.54 µM | 3.44 µM | 0.734 µM | 0.275 µM | 1.95 µM | 19.6 µM | 1.93 µM | 11 µM |  |  |
| CC[C@H](C)[C@H](NC(=O)[C@H](C)NC(=O)[C@H](CCCCN)NC(=O)[C@H](Cc1c[nH]cn1)NC(=O)[C@H](C)NC(=O)[C@H](CCCCN)NC(=O)[C@H](CO)NC(=O)[C@H](CCCCN)NC(=O)[C@H](CO)NC(=O)[C@@H](NC(=O)[C@H](CC(N)=O)NC(=O)[C@H](Cc1ccc(O)cc1)NC(=O)[C@H](C)N)[C@@H](C)CC)C(=O)N[C@@H](CCC(=O)O)C(=O)N[C@@H](CC(C)C)C(=O)O [Peptide 89.0159] | > 20 µM | > 20 µM | > 20 µM | > 20 µM | > 20 µM | 0.651 µM | > 20 µM | > 20 µM | > 20 µM | > 20 µM | > 20 µM |  |  |
| NHQVVPALSVSKAKA [Peptide 89.0168] | > 20 µM | 0.9 µM | > 20 µM | > 20 µM | 7.34 µM | > 20 µM | > 20 µM | 0.959 µM | > 20 µM | > 20 µM | > 20 µM |  |  |
| LVQIKCPPLLITTNI [Peptide 89.0138] | > 20 µM | > 20 µM | > 20 µM |  | > 20 µM | > 20 µM | 0.018 µM | > 20 µM |  | > 20 µM | > 20 µM | > 20 µM | > 20 µM |
| LKVLIKQHSIYTHLQ [Peptide 89.0142] | > 20 µM | 0.448 µM | > 20 µM | > 20 µM | > 20 µM |  | > 20 µM | > 20 µM | > 20 µM | > 20 µM | > 20 µM |  |  |
| HCTLYTAVSSTWHWT [Peptide 89.0157] | > 20 µM | 0.867 µM | > 20 µM | > 20 µM | > 20 µM | 2.89 µM | > 20 µM | 19 µM | > 20 µM | > 20 µM | > 20 µM |  |  |
| RNLVDGNPISLDRKH [Peptide 89.0137] | > 20 µM | > 20 µM | 7.38 µM |  | > 20 µM | 11.2 µM | 0.992 µM | 1.04 µM |  | > 20 µM | > 20 µM | > 20 µM | > 20 µM |
| NSIFDFGEMVQWAYD [Peptide 89.0106] | > 20 µM | 0.532 µM | 5.98 µM | > 20 µM | 9.98 µM | 4.85 µM | 3.95 µM | 5.25 µM | > 20 µM | > 20 µM | > 20 µM |  |  |
| EVHVGGQVIVCPTSI [Peptide 89.0184] | > 20 µM | > 20 µM | > 20 µM | > 20 µM | > 20 µM | > 20 µM | > 20 µM | > 20 µM | > 20 µM | > 20 µM | 0.557 µM |  |  |
| RKTIAKALSSILNVP [Peptide 89.0123] | > 20 µM | > 20 µM | > 20 µM |  | > 20 µM | > 20 µM | 0.746 µM | 11.5 µM |  | > 20 µM | > 20 µM | > 20 µM |  |
| KNCILIHGAPNTGKS [Peptide 89.0055] | > 20 µM | 8.91 µM | 7.3 µM | 19.9 µM | 1.4 µM |  | 0.577 µM | > 20 µM | > 20 µM | 17 µM | 3.85 µM |  |  |
| YFKLFLQGTPKHNCL [Peptide 89.0133] | > 20 µM | 0.193 µM | > 20 µM |  | > 20 µM | > 20 µM | 0.081 µM | 0.109 µM | > 20 µM | > 20 µM | 6.12 µM |  |  |
| GQVIVCPTSISSNQI [Peptide 89.0185] | 1.63 µM | 1.33 µM | > 20 µM | 6.53 µM | 3.76 µM |  | 1.75 µM | 0.091 µM | 2.48 µM | > 20 µM | 7.59 µM |  |  |
| CSAIEVQIALESLST [Peptide 90.0018] | > 20 µM | 0.617 µM | 5.26 µM | > 20 µM | > 20 µM |  | 0.029 µM | 0.24 µM | > 20 µM | 12 µM | 3.32 µM |  |  |
| DSEIAYKYAQLADSD [Peptide 89.0051] | 0.624 µM | > 20 µM | > 20 µM | 3.38 µM | 1.09 µM |  | 1.34 µM | > 20 µM | > 20 µM | 5.32 µM | 12.2 µM |  |  |
| LVQLKCPPLLLTSNT [Peptide 89.0077] |  | 2 µM | 1.09 µM | 17.6 µM | 0.774 µM | 0.051 µM | 0.307 µM | 4.03 µM | 4.49 µM | 11.7 µM | 3.5 µM |  |  |
| QKCFKKKGITVTVQY [Peptide 90.0026] | 1.33 µM | 0.837 µM | 4.39 µM | 7.82 µM | > 20 µM |  | 1.31 µM | 0.996 µM | > 20 µM | 0.639 µM | 2.91 µM |  |  |
| LKEFLKGTPKKNCIL [Peptide 89.0086] | 3.2 µM | 6.61 µM | 5.43 µM |  | 7.81 µM |  | 2.41 µM | 1.62 µM | 4.66 µM | 11.9 µM | 14.9 µM |  |  |
| VKFLRYQQIEFVSFL [Peptide 89.0052] | 7.05 µM | 0.024 µM | 4.59 µM | 1.1 µM | 0.535 µM |  | 0.002 µM | 1.28 µM | 11.2 µM | 3.21 µM | 2.77 µM |  |  |
| FQVIELQMALETLSK [Peptide 89.0182] | > 20 µM | > 20 µM | 0.183 µM | 2.11 µM | 14 µM | 1.01 µM | > 20 µM | 0.224 µM |  | 0.751 µM | 0.232 µM |  |  |
| TYGVSFMELVRPFKS [Peptide 89.0095] | > 20 µM | 0.598 µM | 7.57 µM |  | 0.592 µM |  | 0.389 µM | > 20 µM | 9.07 µM | > 20 µM | > 20 µM |  |  |
| QQLLQVQTAHADKQT [Peptide 89.0115] | > 20 µM | > 20 µM | > 20 µM |  | 10.5 µM | 1.11 µM | 0.932 µM | 5.5 µM |  | > 20 µM | > 20 µM |  | 0.086 µM |
| QAELETAQALFHAQE [Peptide 89.0022] | > 20 µM | 2.78 µM | 3.01 µM | > 20 µM | > 20 µM |  | 0.072 µM | 0.122 µM | 1.95 µM | 0.338 µM | 0.592 µM |  |  |
